According to patent publication US7855166B2, “Sulfonylamino(thio)carbonyl compounds” (Bayer Cropscience GmbH, priority 2005, dated 2010):

Tests used:
[1] = system: weed plants such as Sinapis alba, Chrysanthemum segetum, Avena sativa, Stellaria media, Echinochloa crus-galli, Lolium multiflorum, Setaria viridis, Abutilon …; test: Pre-emergence effect on weeds (greenhouse pot test, visual scoring); type: in vivo; settings: applied pre-emergence at a rate of 0.3 kg or less of active substance per hectare; scored after 3 to 4 weeks in comparison to untreated controls
[2] = system: weed plants such as Sinapis alba, Echinochloa crus-galli, Lolium multiflorum, Chrysanthemum segetum, Setaria viridis, Abutilon theophrasti, Amaranthus …; test: Post-emergence effect on weeds (greenhouse pot test, visual scoring); type: in vivo; settings: applied post-emergence (three-leaf stage) at a rate of 0.3 kg or less of active substance per hectare; scored after about 3 to 4 weeks in comparison to untreated controls

SMILES | herbicidal action against weed plants (visual scoring of plant damage or emergence damage) [1] | herbicidal action against weed plants (effect scored visually) [2]
CCCOc1nn(C(=O)NS(=O)(=O)c2c(Cl)cc(C(F)(F)F)cc2I)c(=O)n1C [Compound 1.844] | very good herbidical action | very good herbicidal action
CCCOc1nn(C(=O)NS(=O)(=O)c2c(I)cccc2OC(F)F)c(=O)n1C1CC1 [Compound 1.473] | very good herbidical action | very good herbicidal action
CCCOc1nn(C(=O)NS(=O)(=O)c2c(I)cccc2OCC2CC2)c(=O)n1C1CC1 [Compound 1.359] | very good herbidical action | very good herbicidal action
CCCOc1nn(C(=O)NS(=O)(=O)c2c(I)cccc2OS(C)(=O)=O)c(=O)n1C [Compound 1.713] | very good herbidical action | very good herbicidal action
COc1nn(C(=O)NS(=O)(=O)c2c(I)cccc2OC(F)(F)F)c(=O)n1C1CC1 [Compound 1.447] | very good herbidical action | very good herbicidal action
COc1nn(C(=O)NS(=O)(=O)c2c(Cl)cc(C(F)(F)F)cc2I)c(=O)n1C1CC1 [Compound 1.846] | very good herbidical action | very good herbicidal action
CCOc1nn(C(=O)NS(=O)(=O)c2cc(C(F)(F)F)ccc2I)c(=O)n1C1CC1 [Compound 1.840] | very good herbidical action | very good herbicidal action
COc1nn(C(=O)NS(=O)(=O)c2ccccc2I)c(=O)n1C1CC1 [Compound 1.008] | very good herbidical action | very good herbicidal action
CCCCc1ccc(S(=O)(=O)NC(=O)n2nc(OC(C)C)n(C)c2=O)c(I)c1 [Compound 1.889] | very good herbidical action | very good herbicidal action
CCOc1nn(C(=O)NS(=O)(=O)c2c(I)cccc2SC)c(=O)n1C1CC1 [Compound 1.585] | very good herbidical action | very good herbicidal action
CCCCOc1cccc(I)c1S(=O)(=O)NC(=O)n1nc(OCCC)n(C2CC2)c1=O [Compound 1.280] | very good herbidical action | very good herbicidal action
CCCOc1nn(C(=O)NS(=O)(=O)c2c(I)cccc2SC)c(=O)n1C [Compound 1.581] | very good herbidical action | very good herbicidal action
CCCOc1nn(C(=O)NS(=O)(=O)c2c(I)cccc2OC)c(=O)n1C1CC1 [Compound 1.204] | very good herbidical action | very good herbicidal action
COc1nn(C(=O)NS(=O)(=O)c2c(I)cccc2OS(C)(=O)=O)c(=O)n1C [Compound 1.711] | very good herbidical action | very good herbicidal action
CC(C)Oc1nn(C(=O)NS(=O)(=O)c2c(I)cccc2OCC(F)F)c(=O)n1C [Compound 1.506] | very good herbidical action | very good herbicidal action
COc1nn(C(=O)NS(=O)(=O)c2c(I)cccc2OC(F)(F)F)c(=O)n1C [Compound 1.440] | very good herbidical action | very good herbicidal action
COc1nn(C(=O)NS(=O)(=O)c2c(F)cccc2I)c(=O)n1C [Compound 1.021] | very good herbidical action | very good herbicidal action

SMILES | herbicidal action against weed plants (visual scoring of plant damage or emergence damage) [1] | herbicidal action against weed plants (effect scored visually) [2]
CCOc1nn(C(=O)NS(=O)(=O)c2cc(C)c(C)cc2I)c(=O)n1C [Compound 1.863] | very good herbidical action | very good herbicidal action
CCOc1nn(C(=O)NS(=O)(=O)c2c(I)cccc2OC)c(=O)n1C1CC1 [Compound 1.191, 4-Cyclopropyl-3-ethoxy-N-[(2-iodo-6-methoxyphenyl)sulfonyl]-5-oxo-4,5-dihydro-1H-1,2,4-triazole-1-carboxamide] | very good herbidical action | very good herbicidal action
COc1nn(C(=O)NS(=O)(=O)c2c(I)cccc2SC)c(=O)n1C [Compound 1.579] | very good herbidical action | very good herbicidal action
CCCc1ccc(S(=O)(=O)NC(=O)n2nc(OC)n(C3CC3)c2=O)c(I)c1 [Compound 1.880] | very good herbidical action | very good herbicidal action
CCCOc1nn(C(=O)NS(=O)(=O)c2cc(C)c(C)cc2I)c(=O)n1C1CC1 [Compound 1.868] | very good herbidical action | very good herbicidal action
COc1nn(C(=O)NS(=O)(=O)c2c(I)cccc2C(F)(F)F)c(=O)n1C [Compound 1.133] | very good herbidical action | very good herbicidal action
CCCCOc1cccc(I)c1S(=O)(=O)NC(=O)n1nc(OCC)n(C2CC2)c1=O [Compound 1.279] | very good herbidical action | very good herbicidal action
CCCOc1nn(C(=O)NS(=O)(=O)c2c(I)cccc2OCC2CC2)c(=O)n1C [Compound 1.350] | very good herbidical action | very good herbicidal action
CCCOc1nn(C(=O)NS(=O)(=O)c2cc(C(F)(F)F)ccc2I)c(=O)n1C1CC1 [Compound 1.841] | very good herbidical action | very good herbicidal action
CCOc1nn(C(=O)NS(=O)(=O)c2ccccc2I)c(=O)n1C [Compound 1.004] | very good herbidical action | very good herbicidal action
CCCOc1nn(C(=O)NS(=O)(=O)c2cccc(Cl)c2I)c(=O)n1C1CC1 [Compound 1.834] | very good herbidical action | very good herbicidal action
COc1nn(C(=O)NS(=O)(=O)c2c(Cl)cc(C(F)(F)F)cc2I)c(=O)n1C [Compound 1.842] | very good herbidical action | very good herbicidal action
CCCOc1nn(C(=O)NS(=O)(=O)c2c(I)cccc2OCC(F)(F)C(F)(F)F)c(=O)n1C1CC1 [Compound 1.558] | very good herbidical action | very good herbicidal action
CCOc1nn(C(=O)NS(=O)(=O)c2c(I)cccc2OC(F)(F)F)c(=O)n1C1CC1 [Compound 1.450] | very good herbidical action | very good herbicidal action
COc1nn(C(=O)NS(=O)(=O)c2cccc(Cl)c2I)c(=O)n1C [Compound 1.828] | very good herbidical action | very good herbicidal action
CCC(C)Oc1cccc(I)c1S(=O)(=O)NC(=O)n1nc(OC)n(C2CC2)c1=O (centres unmarked) [Compound 1.286] | very good herbidical action | very good herbicidal action
COc1nn(C(=O)NS(=O)(=O)c2c(I)cccc2OS(=O)(=O)N(C)C)c(=O)n1C [Compound 1.749] | very good herbidical action | very good herbicidal action
